Experiments:
[1] = target: T1, EGFR-TK (tyrosine kinase domain of EGFR) (Homo sapiens, UniProt P00533); assay: SPR (OpenSPR), immobilised EGFR-TK, […] Langmuir kinetic fit; assay type: binding
T1 construct: cloned into pCold I, expressed in E. coli Rosetta (DE3); DEAE, Resource Q and Superdex 200 purification; immobilised by amine coupling for SPR

[2] = target: T1, EGFR-TK (tyrosine kinase domain of EGFR); assay: ADP-Glo kinase assay, poly(Glu:Tyr) substrate; assay type: biochemical; details: read-out: EGFR-TK inhibition IC50

T1 sequence (P00533 696-1022 limits assumed): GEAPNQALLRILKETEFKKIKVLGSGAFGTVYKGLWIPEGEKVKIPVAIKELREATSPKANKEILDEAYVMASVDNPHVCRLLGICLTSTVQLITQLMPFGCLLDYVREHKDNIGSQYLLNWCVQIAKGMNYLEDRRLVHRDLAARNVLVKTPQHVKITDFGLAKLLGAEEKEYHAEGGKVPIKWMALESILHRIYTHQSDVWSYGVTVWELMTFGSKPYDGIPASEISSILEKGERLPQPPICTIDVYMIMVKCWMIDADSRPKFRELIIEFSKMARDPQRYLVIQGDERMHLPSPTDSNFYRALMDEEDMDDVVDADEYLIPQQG

Row | Structure (SMILES) | Kd [1] [µM] | IC50 [2] [µM]
1 | CCCCCc1cc(O)c2c(c1)OC(C)(C)c1ccc(C)cc1-2 [CBN] | 32.1 | 0.0788 ± 0.0022
2 | CCCCCc1cc(O)c(C/C=C(\C)CCC=C(C)C)c(O)c1 [CBG] | 5.61 | 0.0299 ± 0.0021
3 | C=C(C)[C@@H]1CCC(C)=C[C@H]1c1c(O)cc(CCCCC)cc1O [CBD] | 8.35 | 0.0326 ± 0.00316

— PMC9780064, “Structural analysis of cannabinoids against EGFR-TK leads a novel target against EGFR-driven cell lines” (Current Research in Pharmacology and Drug Discovery, 2022)
